Data set [1] relates to S. cerevisiae strain expressing the 1100 (An11g01100) transporter. The experiment in a line: toxic effect of pentose on yeast growth, strain expressing 1100 transporter. Also: key: ++++: very good growth; +++: good growth; ++: poor growth; +: very poor growth; +/−: growth barely visible; −: no growth. The following applies: 50 mM maltose, YNB + 2% agar + 0.5 mM CuSO4. The class given is cell-based, Saccharomyces cerevisiae. The protocol: (§1) Yeast strain EB.VW4000 was grown on YP [1% (w/v) Bacto yeast extract/2% (w/v) Bacto peptone]with 2% (w/v) maltose at 30° C. (ref strain). Other S. cerevisiae strains used were derived from strain EB.VW4000, and were transformed with plasmids based on pYEX-BX (Clontech). Plasmid transformations of yeast cells were carried out according to the quick and easy TRAFO protocol [TRAFO reference]. Yeast strains were grown at 30° C. in a rotary shaker at 250 rev./min, in YNB[0.67% (w/v) Difco yeast nitrogen base] supplemented with 0.1% (w/v) casamino acids and 0.2 mg/l tryptophan, 20 mg/l leucine, 20 mg/l histidine, 122 mg/l uridine. The carbon sources used were as stated in the text. Unless stated otherwise, 0.5 mM CuSO4 was used to induce expression from the CUP1 promoter.
(§2) Yeast strains provided with an exemplary novel pentose transporter were studied with respect to the effect of growth in the presence of pentose sugars.

In data set [2] the test system is S. cerevisiae strain expressing the 0560 (An06g00560) transporter. The experiment in a line: toxic effect of pentose on yeast growth, strain expressing 0560 transporter. Also: key: ++++: very good growth; +++: good growth; ++: poor growth; +: very poor growth; +/−: growth barely visible; −: no growth. Type of data set: cell-based, Saccharomyces cerevisiae. The following applies: 50 mM maltose, YNB + 2% agar + 0.5 mM CuSO4. The procedure:
as §1, §2

In data set [3] the test system is Aspergillus niger pentose transporter protein An06g00560 (0560), FIG. 1A. Put plainly: zero trans-influx sugar transport assay (14C-labelled pentose uptake, transporter expressed in S. cerevisiae). The class given is biochemical. The conditions noted are these: read-out: Km for L-arabinose, 5 s, 30° C., pH 6.5. The source says: (§3) Cells were kept on ice until required.

Data set [4] deals with Aspergillus niger pentose transporter protein An08g01720 (1720), FIG. 4A. The data set is described as above. The class given is biochemical.
Source text: as §3

The subject of data set [5] is Aspergillus niger pentose transporter protein An03g01620 (1620), FIG. 3A. The data set is described as above. The class given is biochemical.
Source text: as §3

Substrate in data set [6]: OC1OC[C@@H](O)[C@H](O)[C@H]1O
The experiment in a line: cells, lysate or membranes. The following applies: other: zero trans-influx, 5 s, 30° C., pH 6.5.

Substrate in data set [7]: OC1OC[C@H](O)[C@H](O)[C@H]1O
The experiment in a line: cells, lysate or membranes. The conditions noted are these: other: zero trans-influx, 5 s, 30° C., pH 6.5.

Read-outs that look alike come from different tables or passages of the source.

On to `OC1OC[C@H](O)[C@H](O)[C@H]1O` (stereo partly drawn) [L-arabinose], for which the growth entry is “+++” in data set [1] (25 mM pentose); “++” in data set [1] (50 mM pentose); “+” in data set [1] (100 mM pentose); “+/−” in data set [1] (500 mM pentose); “+” in data set [2] (25 mM pentose); “+/−” in data set [2] (50 mM pentose). Also, the growth result in data set [2] (100 mM pentose) is “+/−”; in data set [2] (500 mM pentose), “−”. The Km was 75 mM in data set [3]; 4.9 mM in data set [4] (read-out: Km for L-arabinose, zero trans-influx, 5 s, 30° C., pH 6.5); 7.5 mM in data set [5] (read-out: Km for L-arabinose, 5 s, 30° C., pH 6.5). In addition, the “higher affinity for L-arabinose than An06g00560” value in data set [4] (Km 4.9 mM compared to 75 mM) is listed as “approximately 15 fold”.

As for `OC1OC[C@@H](O)[C@H](O)[C@H]1O` (stereo partly drawn) [D-xylose], the growth result is “++” in data set [1] (25 mM pentose); “+” in data set [1] (50 mM pentose); “+” in data set [1] (100 mM pentose); “+” in data set [1] (500 mM pentose); “+++” in data set [2] (25 mM pentose); “++” in data set [2] (50 mM pentose). The growth result in data set [2] (100 mM pentose) and in data set [2] (500 mM pentose) was “++” in each case. In addition, the Km in data set [5] (read-out: Km for D-xylose, 5 s, 30° C., pH 6.5) worked out at 23 mM.

B1: Aspergillus niger pentose transporter protein An03g02190 (2190), FIG. 8A (Aspergillus niger CBS 513.88) (protein)
chain: MPRKRPQDELNGDVLQQEAQATGPNDQKSEEGIVDTPIPLLTWRSFLMGIFVSMGGFLFGYDTGQISGFLEMPNFLQRYGQQQADGTYYFSNARSGLIVALLSIGTLIGALIAAPIADRVGRKWSISGWSAMVCVGITIQISSPFGKWYQVAMGRWVAGLGVGALSLLVPMYQAETGPRHIRGSLVSTYQLFITLGIFVANCINFGTEARNDTGSWRIPMGITYIWAMILGFGIALFPESARYDYRHGREAKAARTLSRMYGIPENHRMLKLEIGEIRQKFVEEQERGEITWSHLLHAPRMKYRVAVGVALQALQQLTGANYFFYYGTTIFRGAGISNSYVTQMILGGVNFGTTFLGLYLIENYGRRRSLITGALWMFVCFMVFASVGHFSLDHENPERTHTAGVVMVVFACLFILGFASTWGPMVWTIIAELYPSEFRARAMSLATASNWLWNFLLAFFTPFITSAIDFRLGYVFAGCLFLAAGLVYVAVIEGRGRTLEEIDTMYVMKVPPWKSSKYVFPDIDPYDRRGSILSKAGASHIPQVSGGNETLSPHTTEV
As to B1, the Km in data set [6] worked out at 9 mM mM; in data set [7], 2.6 mM mM.

These data come from patent US20120295321A1, “Pentose Transporters and Uses Thereof” (Universiteit Utrecht Holding B.V., priority 2009, published 2012).
